From patent US20170327598A1, “SINGLE DOMAIN ANTIBODIES DIRECTED AGAINST INTRACELLULAR ANTIGENS” (SINGH MOLECULAR MEDICINE, LLC, priority 2014, published 2017)
“And” between values parts separate entries of the source, which are not always exact repeats. Identical values can stand only once. Numbered stars: 1 amine (or outer) side, 2 acyl side, 3 side chain; on linkers, the order of the positions; unused ones are H or OH. Bridge positions count the residues as written; N and C are the ends. Square brackets hold non-standard residues; d marks the D form. Peptide text beside a SMILES is read from it. I, II: the chains in the order shown. Actinocin(9to1) = Cc1c2oc3c(C)ccc(C(=O)[*:1])c3nc-2c(C(=O)[*:2])c(N)c1=O; NMeV = CN[C@H](C(=O)O)C(C)C; Sar = CNCC(=O)O

Test system: L929 cells
Assay: Percent toxicity of control wells in L929 cells
Assay type: cell-based, mouse
Conditions: Actinomycin D only (no TNFα), sample replicates

## Cc1c2oc3c(C)ccc(C(=O)N[C@@H]4C(=O)N[C@H](C(C)C)C(=O)N5CCC[C@H]5C(=O)N(C)CC(=O)N(C)[C@@H](C(C)C)C(=O)O[C@@H]4C)c3nc-2c(C(=O)N[C@@H]2C(=O)N[C@H](C(C)C)C(=O)N3CCC[C@H]3C(=O)N(C)CC(=O)N(C)[C@@H](C(C)C)C(=O)O[C@@H]2C)c(N)c1=O [Actinomycin D] (I: T[dV]P[Sar][NMeV] / II: T[dV]P[Sar][NMeV]; ester I:1-I:C, II:1-II:C; linker I:N-II:N via Actinocin(9to1))
Assay 1
  % Toxicity: 18.6% and 5.4% and 2.3% and 3.5% and 0% (8×)
Assay 2
  % Toxicity: 2.3% and 0% (4×) and 10.4% and 0.4%
